Data from PubChem BioAssay (NCI).
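Briefly, cells in 96-well plates were exposed to five compound concentrations for 48 h, and endpoints were estimated by linear interpolation. At the GI50, growth is halved. TGI marks complete inhibition of growth.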

What was measured:
Experiment in all cases: NCI tumour cell line growth inhibition, 48 h
NCI-H23 lung = tested on: NCI-H23 lung
SW-620 colon = tested on: SW-620 colon
HCC-2998 colon = tested on: HCC-2998 colon
SR leukemia = tested on: SR leukemia
NCI-H460 lung = tested on: NCI-H460 lung
COLO 205 colon = tested on: COLO 205 colon
NCI-H226 lung = tested on: NCI-H226 lung
OVCAR-5 ovarian = tested on: OVCAR-5 ovarian
SF-268 CNS = tested on: SF-268 CNS
ACHN renal = tested on: ACHN renal

## CN(C)CCNc1nc(-c2cccs2)cc(-c2cccs2)n1
NCI-H23 lung
  TGI: 25.7 µM
SW-620 colon
  TGI: 29.1 µM
HCC-2998 colon
  TGI: 25.3 µM
SR leukemia
  TGI: 15.4 µM
NCI-H460 lung
  TGI: 18.3 µM
COLO 205 colon
  TGI: 27.9 µM
NCI-H226 lung
  TGI: 30.5 µM
OVCAR-5 ovarian
  TGI: 23.9 µM

## CCc1nc(-n2c(-c3ccccc3)nc3ccccc3c2=O)nc(N)c1-c1ccc(Cl)cc1
NCI-H23 lung
  GI50: 2.9 µM
  TGI: 39.7 µM
SW-620 colon
  GI50: 4.64 µM
  TGI: > 100 µM
SF-268 CNS
  GI50: 73.2 µM
  TGI: > 100 µM
NCI-H460 lung
  GI50: 8 µM
  TGI: > 100 µM
ACHN renal
  GI50: 5.53 µM
  TGI: > 100 µM
COLO 205 colon
  GI50: 14.2 µM
  TGI: > 100 µM
NCI-H226 lung
  GI50: 69.2 µM
  TGI: > 100 µM
OVCAR-5 ovarian
  GI50: 2.86 µM
  TGI: > 100 µM

## CCOC(=O)NC(=O)c1c[nH]c(=O)[nH]c1=O
NCI-H23 lung
  TGI: > 100 µM
SW-620 colon
  TGI: > 100 µM
HCC-2998 colon
  TGI: > 100 µM
SR leukemia
  TGI: > 100 µM
NCI-H460 lung
  TGI: > 100 µM
ACHN renal
  TGI: > 100 µM
COLO 205 colon
  TGI: > 100 µM
NCI-H226 lung
  TGI: > 100 µM
OVCAR-5 ovarian
  TGI: > 100 µM

## CC(=O)N1CCN(CCOc2ccc(C3CCN(C4=Nn5c(nnc5C(F)(F)F)CC4)CC3)cc2)CC1
NCI-H23 lung
  GI50: 11.4 µM
  TGI: > 100 µM
SW-620 colon
  GI50: > 100 µM
  TGI: > 100 µM
SF-268 CNS
  GI50: 77.9 µM
  TGI: > 100 µM
HCC-2998 colon
  GI50: 21.6 µM
  TGI: > 100 µM
NCI-H460 lung
  GI50: 30.9 µM
  TGI: > 100 µM
ACHN renal
  GI50: 10.6 µM
  TGI: > 100 µM
COLO 205 colon
  GI50: 11.5 µM
  TGI: > 70.6 µM
NCI-H226 lung
  GI50: 34.8 µM
  TGI: > 100 µM
OVCAR-5 ovarian
  GI50: 89.4 µM
  TGI: > 100 µM

## O=C1c2ccn(CCCCN3CCC(O)CC3)c2C(=O)c2c1c(O)c1ccccc1c2O
NCI-H23 lung
  GI50: 1.97 µM
  TGI: 3.84 µM
SW-620 colon
  GI50: 4.48 µM
  TGI: > 100 µM
SF-268 CNS
  GI50: 17.8 µM
  TGI: > 74.3 µM
HCC-2998 colon
  GI50: 20.6 µM
  TGI: > 59.5 µM
SR leukemia
  GI50: > 100 µM
  TGI: > 100 µM
ACHN renal
  GI50: 15.2 µM
  TGI: 32.8 µM
COLO 205 colon
  GI50: 37.2 µM
  TGI: > 66.2 µM
NCI-H226 lung
  GI50: 23.7 µM
  TGI: 60.2 µM
OVCAR-5 ovarian
  GI50: 33.4 µM
  TGI: > 66.8 µM

## CO[C@H](C(=O)O)[C@@H]1Cc2cc3cc(OC4CC(OC5CC(O)C(O)C(C)O5)C(O)C(C)O4)c(C)c(O)c3c(O)c2C(=O)[C@H]1OC1CC(OC2CC(OC3CC(C)(O)C(O)C(C)O3)C(O)C(C)O2)C(O)C(C)O1 (stereo partly drawn)
NCI-H23 lung
  GI50: 0.211 µM
  TGI: 2.67 µM
SW-620 colon
  GI50: 0.245 µM
  TGI: > 32.5 µM
SF-268 CNS
  GI50: 0.283 µM
  TGI: > 32.5 µM
SR leukemia
  GI50: 0.133 µM
  TGI: 8.37 µM
NCI-H460 lung
  GI50: 0.131 µM
  TGI: > 32.5 µM
COLO 205 colon
  GI50: 0.285 µM
  TGI: 2.57 µM
NCI-H226 lung
  GI50: 0.126 µM
  TGI: 0.892 µM
OVCAR-5 ovarian
  GI50: 0.375 µM
  TGI: > 32.5 µM

## c1ccc2nc(OCCN3CC3)ccc2c1
NCI-H23 lung
  GI50: 12.9 µM
  TGI: 35.8 µM
SW-620 colon
  GI50: 1.97 µM
  TGI: 5.43 µM
SF-268 CNS
  GI50: 16 µM
  TGI: 35.5 µM
HCC-2998 colon
  GI50: 2.31 µM
  TGI: 5.53 µM
NCI-H460 lung
  GI50: 4.21 µM
  TGI: 20.9 µM
ACHN renal
  GI50: 15 µM
  TGI: 35.9 µM
COLO 205 colon
  GI50: 1.98 µM
  TGI: 5 µM
NCI-H226 lung
  GI50: 16.6 µM
  TGI: 38.6 µM
OVCAR-5 ovarian
  GI50: 17.1 µM
  TGI: 31.5 µM

## OCC(O)C(OC1OC(CO)C(O)C(O)C1O)c1nn(-c2ccccc2)c2nc3cc(Cl)ccc3nc12 (stereo not drawn)
NCI-H23 lung
  TGI: > 100 µM
SF-268 CNS
  TGI: > 100 µM
HCC-2998 colon
  TGI: > 100 µM
SR leukemia
  TGI: > 100 µM
NCI-H460 lung
  TGI: > 100 µM
ACHN renal
  TGI: > 100 µM
OVCAR-5 ovarian
  TGI: > 100 µM

## Cc1ccc(NC(=O)CCC(=O)C(C#N)c2ccccc2)cc1C (stereo not drawn)
NCI-H23 lung
  TGI: > 100 µM
SW-620 colon
  TGI: > 100 µM
SF-268 CNS
  TGI: > 100 µM
HCC-2998 colon
  TGI: > 100 µM
NCI-H460 lung
  TGI: > 100 µM
ACHN renal
  TGI: > 100 µM
COLO 205 colon
  TGI: > 100 µM
NCI-H226 lung
  TGI: > 100 µM
OVCAR-5 ovarian
  TGI: > 100 µM

## C[N+](C)(C)CC1CCCC/C1=N\O (stereo not drawn)
NCI-H23 lung
  TGI: > 100 µM
SW-620 colon
  TGI: > 100 µM
SF-268 CNS
  TGI: > 100 µM
HCC-2998 colon
  TGI: > 100 µM
NCI-H460 lung
  TGI: > 100 µM
ACHN renal
  TGI: > 100 µM
COLO 205 colon
  TGI: > 100 µM
OVCAR-5 ovarian
  TGI: > 100 µM

## O=C(NCCCCOCC#Cc1ccccc1C#CCS(=O)(=O)c1ccccc1)c1cc2ccccc2[nH]1
NCI-H23 lung
  GI50: 7.25 µM
  TGI: 16 µM
SW-620 colon
  GI50: 11.5 µM
  TGI: > 45.5 µM
SF-268 CNS
  GI50: 12.4 µM
  TGI: > 43.1 µM
HCC-2998 colon
  GI50: 12 µM
  TGI: 32.4 µM
NCI-H460 lung
  GI50: 14.4 µM
  TGI: > 50 µM
ACHN renal
  GI50: 9.64 µM
  TGI: 22.9 µM
COLO 205 colon
  GI50: 10.9 µM
  TGI: 28.1 µM
NCI-H226 lung
  GI50: 9.85 µM
  TGI: 25 µM
OVCAR-5 ovarian
  GI50: 26.8 µM
  TGI: > 50 µM

## C#CCN(C)C(=O)N(CC#C)N=O
NCI-H23 lung
  TGI: > 100 µM
SW-620 colon
  TGI: > 100 µM
SF-268 CNS
  TGI: > 100 µM
NCI-H460 lung
  TGI: > 100 µM
ACHN renal
  TGI: > 100 µM
COLO 205 colon
  TGI: > 100 µM
OVCAR-5 ovarian
  TGI: > 100 µM

## Nc1c(-c2nc3ccccc3[nH]2)sc(=S)n1-c1ccc(Cl)cc1
NCI-H23 lung
  TGI: 81.8 µM
SW-620 colon
  TGI: > 100 µM
SF-268 CNS
  TGI: 54.9 µM
HCC-2998 colon
  TGI: 48.8 µM
ACHN renal
  TGI: 43 µM
COLO 205 colon
  TGI: > 100 µM
NCI-H226 lung
  TGI: 52.2 µM
OVCAR-5 ovarian
  TGI: > 100 µM

## CCOC(=S)SCN1C(=O)c2ccccc2S1(=O)=O
NCI-H23 lung
  GI50: 12.6 µM
  TGI: 27.8 µM
SW-620 colon
  GI50: 4.96 µM
  TGI: 19.7 µM
SF-268 CNS
  GI50: 29.5 µM
  TGI: > 100 µM
HCC-2998 colon
  GI50: 16.2 µM
  TGI: 29.8 µM
NCI-H460 lung
  GI50: 45.4 µM
  TGI: > 100 µM
ACHN renal
  GI50: 16.8 µM
  TGI: 30.5 µM
COLO 205 colon
  GI50: 2.94 µM
  TGI: 11.2 µM
NCI-H226 lung
  GI50: 29.2 µM
  TGI: 80.9 µM
OVCAR-5 ovarian
  GI50: 14.5 µM
  TGI: 29.9 µM

## CC(C)(C)C(=O)OCc1nc2cc3c(cc2c(=O)[nH]1)CCC3=O
NCI-H23 lung
  GI50: > 100 µM
  TGI: > 100 µM
SW-620 colon
  GI50: > 100 µM
  TGI: > 100 µM
SF-268 CNS
  GI50: > 100 µM
  TGI: > 100 µM
HCC-2998 colon
  GI50: > 100 µM
  TGI: > 100 µM
NCI-H460 lung
  GI50: > 100 µM
  TGI: > 100 µM
ACHN renal
  GI50: > 100 µM
  TGI: > 100 µM
COLO 205 colon
  GI50: > 100 µM
  TGI: > 100 µM
NCI-H226 lung
  GI50: > 100 µM
  TGI: > 100 µM
OVCAR-5 ovarian
  GI50: > 100 µM
  TGI: > 100 µM

## COc1cc(/C=N\O)nc(-c2ccccn2)c1
NCI-H23 lung
  TGI: > 100 µM
SW-620 colon
  TGI: > 100 µM
SF-268 CNS
  TGI: > 100 µM
HCC-2998 colon
  TGI: > 100 µM
SR leukemia
  TGI: 0.453 µM
NCI-H460 lung
  TGI: > 100 µM
ACHN renal
  TGI: > 100 µM
COLO 205 colon
  TGI: > 100 µM
OVCAR-5 ovarian
  TGI: > 100 µM

## Cc1nnc(-c2ccc(-c3nc4ccccc4o3)cc2)o1
NCI-H23 lung
  GI50: > 100 µM
  TGI: > 100 µM
SW-620 colon
  GI50: > 100 µM
  TGI: > 100 µM
SF-268 CNS
  GI50: 28.6 µM
  TGI: 92.2 µM
HCC-2998 colon
  GI50: 78.8 µM
  TGI: > 100 µM
SR leukemia
  GI50: 25.8 µM
  TGI: 68 µM
NCI-H460 lung
  GI50: 25.9 µM
  TGI: > 100 µM
ACHN renal
  GI50: > 100 µM
  TGI: > 100 µM
COLO 205 colon
  GI50: 76.8 µM
  TGI: > 100 µM
OVCAR-5 ovarian
  GI50: 44.8 µM
  TGI: > 100 µM
